Measured values reported in patent US20260070945A1, “MACROCYCLIC IMMUNOMODULATORS” (Bristol-Myers Squibb Company, priority 2022, published 2026).
*1 amine or outer side, *2 acyl side, *3 side chain or, on linkers, in order; H or OH if unused. Where a SMILES comes first, the peptide text is derived from it. Bridges are numbered along the chain shown (N, C = ends). [ ]: non-standard residue; d: D form. The star is where a group is joined. ξ: configuration not given here. Phe(3-CF3) = N[C@@H](Cc1cccc(C(F)(F)F)c1)C(=O)O; Phe(4-COOH) = N[C@@H](Cc1ccc(C(=O)O)cc1)C(=O)O; Bip = N[C@@H](Cc1ccc(-c2ccccc2)cc1)C(=O)O; Phe(3-Cl) = N[C@@H](Cc1cccc(Cl)c1)C(=O)O; Phe(3-Me) = Cc1cccc(C[C@H](N)C(=O)O)c1; γGlu = O=C(O)[C@H](CCC(=O)[*:2])N[*:1]; NH(CH2)12COOH = O=C(O)CCCCCCCCCCCCN*; NMeAEEA = CN(CCOCCOCC(=O)[*:2])[*:1]; Val(3-OH) = CC(C)(O)[C@H](N)C(=O)O; 4Pal = N[C@@H](Cc1ccncc1)C(=O)O; Cha = N[C@@H](CC1CCCCC1)C(=O)O; Cit = NC(=O)NCCC[C@H](N)C(=O)O; Ile(3ξ) = CCC(C)[C@H](N)C(=O)O; NMeN = CN[C@@H](CC(N)=O)C(=O)O; Thr(3ξ) = CC(O)[C@H](N)C(=O)O; Carboxymethyl = O=C(O)C*; NMeA = CN[C@@H](C)C(=O)O; Orn = NCCC[C@H](N)C(=O)O; Aun = NCCCCCCCCCCC(=O)O; Dab = NCC[C@H](N)C(=O)O; AEEA = NCCOCCOCC(=O)O; Sar = CNCC(=O)O

Molecular target: T1, PD-1/PD-L1 interaction (PE-labeled human PD-L1-Ig binding to Jurkat cell line over-expressing human PD-1) (Homo sapiens, UniProt Q15116)
T1 construct: expressed in transfected cells; host or cells: Jurkat
T1 sequence (Q15116 25-288): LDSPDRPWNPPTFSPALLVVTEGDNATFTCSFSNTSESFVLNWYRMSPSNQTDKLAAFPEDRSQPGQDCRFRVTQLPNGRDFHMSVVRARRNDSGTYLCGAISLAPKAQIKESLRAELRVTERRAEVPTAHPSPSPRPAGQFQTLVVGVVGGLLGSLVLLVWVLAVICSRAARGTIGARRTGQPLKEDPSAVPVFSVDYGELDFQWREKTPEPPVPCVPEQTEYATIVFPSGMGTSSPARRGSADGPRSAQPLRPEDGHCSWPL
Assay: Jurkat-PD-1 Cell Binding High-Content Screening Assay (CBA)
Conditions: Jurkat-hPD-1 cells, PE-labeled PD-L1-Ig 20 nM final; read-out: Jurkat HPD1 PDL1 IC50
How it was run: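 Cells 8×10^3/well, DMEM + 10% FCS; cpd 2 h, 37 °C; PE–PD-L1-Ig 20 nM final, 1 h; PFA fix + Hoechst 33342, 3× dPBS wash; high-content imager.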

Row | IC50 [nM] | Structure (SMILES)
1 | 21.9 | Cc1cccc(C[C@@H]2NC(=O)[C@H](CC(=O)O)NC(=O)[C@H](Cc3ccc(OCC(=O)O)cc3)NC(=O)[C@H](C(C)O)NC(=O)CSC[C@@H](C(=O)N(C)CCOCCOCC(=O)NCCCCCCCCCCC(=O)O)NC(=O)[C@H](C(C)O)NC(=O)[C@H](C(C)C)NC(=O)[C@H](CC3CCCCC3)NC(=O)[C@H](CCN)NC(=O)[C@@H](CC(C)C)NC(=O)[C@H](C)N(C)C(=O)[C@H](C(C)C)NC(=O)[C@H](Cc3ccc(-c4ccccc4)cc3)NC(=O)[C@H](C(C)C)NC2=O)c1 (stereo partly drawn) [Example 2363] ({CH2CO}-[Thr(3ξ)]Y(Carboxymethyl)D[Phe(3-Me)]V[Bip]V[NMeA][dL][Dab][Cha]V[Thr(3ξ)]C[NMeAEEA][Aun]-OH; thioether N-14)
2 | 8.4 | CC(C)C[C@@H]1NC(=O)[C@H](Cc2c[nH]c3ccccc23)NC(=O)[C@H](CC(=O)O)NC(=O)[C@H](Cc2ccc(C(=O)O)cc2)NC(=O)[C@H](Cc2ccc(OCC(=O)O)cc2)NC(=O)CSC[C@@H](C(=O)N[C@@H](CCCN)C(=O)NCCOCCOCC(=O)NCCCCCCCCCCC(=O)O)NC(=O)[C@H](CCC(=O)O)NC(=O)[C@H](C(C)C)NC(=O)[C@H](CC2CCCCC2)NC(=O)[C@H](CCN)NC(=O)[C@@H](CC(C)C)NC(=O)[C@H](C)N(C)C(=O)[C@H](C(C)C)NC(=O)[C@H](Cc2ccc(-c3ccccc3)cc2)NC1=O [Example 2126] ({CH2CO}-Y(Carboxymethyl)[Phe(4-COOH)]DWL[Bip]V[NMeA][dL][Dab][Cha]VEC[Orn][AEEA][Aun]-OH; thioether N-14)
3 | 19.9 | Cc1cccc(C[C@@H]2NC(=O)[C@H](CC(=O)O)NC(=O)[C@H](Cc3ccc(OCC(=O)O)cc3)NC(=O)[C@H](C(C)O)NC(=O)CSC[C@@H](C(=O)N(C)[C@@H](CC(N)=O)C(=O)NCCOCCOCC(=O)NCCCCCCCCCCC(=O)O)NC(=O)[C@H](CCCNC(N)=O)NC(=O)[C@H](C(C)C)NC(=O)[C@H](CC3CCCCC3)NC(=O)[C@H](CCN)NC(=O)[C@@H](CC(C)C)NC(=O)[C@H](C)N(C)C(=O)[C@H](C(C)C)NC(=O)[C@H](Cc3ccc(-c4ccccc4)cc3)NC(=O)[C@H](C(C)C)NC2=O)c1 (stereo partly drawn) [Example 2305] ({CH2CO}-[Thr(3ξ)]Y(Carboxymethyl)D[Phe(3-Me)]V[Bip]V[NMeA][dL][Dab][Cha]V[Cit]C[NMeN][AEEA][Aun]-OH; thioether N-14)
4 | 11.4 | Cc1cccc(C[C@@H]2NC(=O)[C@H](CC(=O)O)NC(=O)[C@H](Cc3ccc(OCC(=O)O)cc3)NC(=O)[C@H](C(C)O)NC(=O)CSC[C@@H](C(=O)N(C)CC(=O)NCCCCCCCCCCC(=O)O)NC(=O)[C@H](CCCNC(N)=O)NC(=O)[C@H](C(C)C)NC(=O)[C@H](CC3CCCCC3)NC(=O)[C@H](CCN)NC(=O)[C@@H](CC(C)C)NC(=O)[C@H](C)N(C)C(=O)[C@H](C(C)C)NC(=O)[C@H](Cc3ccc(-c4ccccc4)cc3)NC(=O)[C@H](C(C)C)NC2=O)c1 (stereo partly drawn) [Example 2259] ({CH2CO}-[Thr(3ξ)]Y(Carboxymethyl)D[Phe(3-Me)]V[Bip]V[NMeA][dL][Dab][Cha]V[Cit]C[Sar][Aun]-OH; thioether N-14)

The next lines start with the molecule.

Row | Structure (SMILES) | IC50 [nM]
5 | CCC(C)[C@@H]1NC(=O)[C@H](Cc2ccc(-c3ccccc3)cc2)NC(=O)[C@H](CC(C)C)NC(=O)[C@H](Cc2c[nH]c3ccccc23)NC(=O)[C@H](CC(=O)O)NC(=O)[C@H](Cc2ccc(OCC(=O)O)cc2)NC(=O)[C@H](Cc2ccncc2)NC(=O)CSC[C@@H](C(=O)NCCOCCOCC(=O)N[C@@H](CCC(=O)NCCCCCCCCCCC(=O)O)C(=O)O)NC(=O)[C@H](CO)NC(=O)[C@H](C(C)C)NC(=O)[C@H](CC2CCCCC2)NC(=O)[C@H](CCN)NC(=O)[C@@H](CC(C)C)NC(=O)[C@H](C)N(C)C1=O (stereo partly drawn) [Example 2045] ({CH2CO}-[4Pal]Y(Carboxymethyl)DWL[Bip][Ile(3ξ)][NMeA][dL][Dab][Cha]VSC[AEEA][γGlu][Aun]-OH; thioether N-14) | 26.9
6 | Cc1cccc(C[C@@H]2NC(=O)[C@H](CC(=O)O)NC(=O)[C@H](Cc3ccc(C(=O)O)cc3)NC(=O)[C@H](CCN)NC(=O)CSC[C@@H](C(=O)N[C@@H](CCN)C(=O)NCCCCCCCCCCC(=O)O)NC(=O)[C@H](CO)NC(=O)[C@H](C(C)(C)O)NC(=O)[C@H](CC3CCCCC3)NC(=O)[C@H](CCN)NC(=O)[C@@H](CC(C)C)NC(=O)[C@H](C)N(C)C(=O)[C@H](Cc3ccc(OCC(=O)O)cc3)NC(=O)[C@H](Cc3ccc(-c4ccccc4)cc3)NC(=O)[C@H](Cc3cccc(Cl)c3)NC2=O)c1 [Example 1297] ({CH2CO}-[Dab][Phe(4-COOH)]D[Phe(3-Me)][Phe(3-Cl)][Bip]Y(Carboxymethyl)[NMeA][dL][Dab][Cha][Val(3-OH)]SC[Dab][Aun]-OH; thioether N-14) | 33.3
7 | CC(C)C[C@H]1NC(=O)[C@H](C)N(C)C(=O)[C@H](Cc2ccc(C(=O)O)cc2)NC(=O)[C@H](Cc2ccc(-c3ccccc3)cc2)NC(=O)[C@H](Cc2ccc(C(=O)O)cc2)NC(=O)[C@H](Cc2cccc(C(F)(F)F)c2)NC(=O)[C@H](CC(=O)O)NC(=O)[C@H](Cc2ccc(OCC(=O)O)cc2)NC(=O)[C@H](Cc2ccc(C(=O)O)cc2)NC(=O)CSC[C@@H](C(=O)N[C@@H](CCN)C(=O)NCCOCCOCC(=O)N[C@@H](CCC(=O)NCCOCCOCC(=O)NCCCCCCCCCCCCC(=O)O)C(=O)O)NC(=O)[C@H](CCC(=O)O)NC(=O)[C@H](C(C)C)NC(=O)[C@H](CC2CCCCC2)NC(=O)[C@H](CCN)NC1=O [Example 1160] ({CH2CO}-[Phe(4-COOH)]Y(Carboxymethyl)D[Phe(3-CF3)][Phe(4-COOH)][Bip][Phe(4-COOH)][NMeA][dL][Dab][Cha]VEC[Dab][AEEA][γGlu][AEEA]-{NH(CH2)12COOH}; thioether N-14) | 101
8 | COC[C@@H]1NC(=O)CSC[C@@H](C(=O)N[C@@H](CCN)C(=O)NCCOCCOCC(=O)N[C@@H](CCC(=O)NCCOCCOCC(=O)NCCCCCCCCCCCCC(=O)O)C(=O)O)NC(=O)[C@H](CO)NC(=O)[C@H](C(C)(C)O)NC(=O)[C@H](CC2CCCCC2)NC(=O)[C@H](CCN)NC(=O)[C@@H](CC(C)C)NC(=O)[C@H](C)N(C)C(=O)[C@H](Cc2ccc(C(=O)O)cc2)NC(=O)[C@H](Cc2ccc(-c3ccccc3)cc2)NC(=O)[C@H](Cc2ccc(C(=O)O)cc2)NC(=O)[C@H](Cc2cccc(C(F)(F)F)c2)NC(=O)[C@H](CC(=O)O)NC(=O)[C@H](Cc2ccc(OCC(=O)O)cc2)NC1=O [Example 1170] ({CH2CO}-S(Me)Y(Carboxymethyl)D[Phe(3-CF3)][Phe(4-COOH)][Bip][Phe(4-COOH)][NMeA][dL][Dab][Cha][Val(3-OH)]SC[Dab][AEEA][γGlu][AEEA]-{NH(CH2)12COOH}; thioether N-14) | 54
9 | CCC(C)[C@@H]1NC(=O)[C@H](Cc2ccc(-c3ccccc3)cc2)NC(=O)[C@H](C(C)C)NC(=O)[C@H](Cc2c[nH]c3ccccc23)NC(=O)[C@H](CC(=O)O)NC(=O)[C@H](Cc2ccc(OCC(=O)O)cc2)NC(=O)[C@H](C(C)O)NC(=O)CSC[C@@H](C(=O)N[C@H](CC(N)=O)C(=O)NCCOCCOCC(=O)NCCCCCCCCCCC(=O)O)NC(=O)[C@H](CO)NC(=O)[C@H](C(C)C)NC(=O)[C@H](CC2CCCCC2)NC(=O)[C@H](CCN)NC(=O)[C@@H](CC(C)C)NC(=O)[C@H](C)N(C)C1=O (stereo partly drawn) [Example 2031] ({CH2CO}-[Thr(3ξ)]Y(Carboxymethyl)DWV[Bip][Ile(3ξ)][NMeA][dL][Dab][Cha]VSC[dN][AEEA][Aun]-OH; thioether N-14) | 9.4

Same assay, conditions: PE-labeled PD-L1-Ig 20 nM final, Jurkat-hPD-1 cells; read-out: Jurkat HPD1 PDL1 IC50

Row | IC50 [nM] | Structure (SMILES)
10 | 22.3 | Cc1cccc(C[C@@H]2NC(=O)[C@H](CC(=O)O)NC(=O)[C@H](Cc3ccc(OCC(=O)O)cc3)NC(=O)[C@H](C(C)O)NC(=O)CSC[C@@H](C(=O)N[C@@H](CCN)C(=O)NCCOCCOCC(=O)NCCCCCCCCCCC(=O)O)NC(=O)[C@H](C(C)O)NC(=O)[C@H](C(C)(C)O)NC(=O)[C@H](CC3CCCCC3)NC(=O)[C@H](CCN)NC(=O)[C@@H](CC(C)C)NC(=O)[C@H](C)N(C)C(=O)[C@H](Cc3ccc(OCC(=O)O)cc3)NC(=O)[C@H](Cc3ccc(-c4ccccc4)cc3)NC(=O)[C@H](Cc3ccc(OCC(=O)O)cc3)NC2=O)c1 (stereo partly drawn) [Example 2468] ({CH2CO}-[Thr(3ξ)]Y(Carboxymethyl)D[Phe(3-Me)]Y(Carboxymethyl)[Bip]Y(Carboxymethyl)[NMeA][dL][Dab][Cha][Val(3-OH)][Thr(3ξ)]C[Dab][AEEA][Aun]-OH; thioether N-14)
11 | 2.8 | Cc1cccc(C[C@@H]2NC(=O)[C@H](CC(=O)O)NC(=O)[C@H](Cc3ccc(C(=O)O)cc3)NC(=O)[C@H](CCN)NC(=O)CSC[C@@H](C(=O)N[C@@H](CCN)C(=O)NCCOCCOCC(=O)NCCCCCCCCCCC(=O)O)NC(=O)[C@H](Cc3cnc[nH]3)NC(=O)[C@H](C(C)O)NC(=O)[C@H](CC3CCCCC3)NC(=O)[C@H](CCN)NC(=O)[C@@H](CC(C)C)NC(=O)[C@H](C)N(C)C(=O)[C@H](Cc3ccc(C(=O)O)cc3)NC(=O)[C@H](Cc3ccc(-c4ccccc4)cc3)NC(=O)[C@H](Cc3ccc(C(=O)O)cc3)NC2=O)c1 (stereo partly drawn) [Example 2550] ({CH2CO}-[Dab][Phe(4-COOH)]D[Phe(3-Me)][Phe(4-COOH)][Bip][Phe(4-COOH)][NMeA][dL][Dab][Cha][Thr(3ξ)]HC[Dab][AEEA][Aun]-OH; thioether N-14)
12 | 36 | Cc1cccc(C[C@@H]2NC(=O)[C@H](CC(=O)O)NC(=O)[C@H](Cc3ccc(OCC(=O)O)cc3)NC(=O)[C@H](C(C)O)NC(=O)CSC[C@@H](C(=O)N[C@@H](CCN)C(=O)NCCCCCCCCCCC(=O)O)NC(=O)[C@H](CO)NC(=O)[C@H](Cc3cnc[nH]3)NC(=O)[C@H](CC3CCCCC3)NC(=O)[C@H](CCN)NC(=O)[C@@H](CC(C)C)NC(=O)[C@H](C)N(C)C(=O)[C@H](Cc3ccc(OCC(=O)O)cc3)NC(=O)[C@H](Cc3ccc(-c4ccccc4)cc3)NC(=O)[C@H](Cc3ccc(OCC(=O)O)cc3)NC2=O)c1 (stereo partly drawn) [Example 2426] ({CH2CO}-[Thr(3ξ)]Y(Carboxymethyl)D[Phe(3-Me)]Y(Carboxymethyl)[Bip]Y(Carboxymethyl)[NMeA][dL][Dab][Cha]HSC[Dab][Aun]-OH; thioether N-14)
